# Experimental data taken from patent publication US20260297095A1, “NOVEL PYRROLOTRIAZINE DERIVATIVE AND USE THEREOF” (Pelemed Co., Ltd., priority 2024, published 2026).
# Molecular target: YES1 kinase (Homo sapiens, UniProt P07947)
# Assay: YES1 kinase inhibition, ADP Glo assay (Promega)
# Type: biochemical
# Conditions: compound 10 nM; read-out: YES1 enzyme, % inhibition, 10 nM
# Protocol: To evaluate the inhibitory activity against YES1 kinase of the compound according to the present invention, ADP Glo assay (Promega) was used, and the following method was performed with reference to the Promega kinase enzyme system protocol. To proceed with the experiment, buffers A-F and compound dilution plates were required.
# To prepare A.4X reaction buffer, 800 μl of 5X reaction buffer and 200 μl of distilled water were used. To prepare B.4X kinase buffer, 996.6 μl of A.4X reaction buffer, 2 μl of 0.1M DTT, and 3.2 μl of 2.5M MnCl2 were added and mixed. To prepare C.1X kinase buffer (containing 5% DMSO) used for compound dilution, 250 μl of B.4X kinase buffer, 700 μl of distilled water, and 50 μl of DMSO were added, so that the final DMSO concentration became 5%. Then, 10 mM compounds were diluted 100-fold to prepare 100 μM solutions, and then D.5X inhibitor solution was prepared so that the compound concentration became 5 uM. Using a 96-well plate, 5 μM compounds were 3-fold diluted using C.1X kinase buffer (containing 5% DMSO) to prepare compound plates with concentrations ranging from 0.25 μM to 5 μM. The resulting plates were stored at room temperature. To prepare E. 2.5X ATP/substrate mixture, 50 μl of B.4X kinase buffer, 50 μl of […], and 100 μl of substrate were mixed. To prepare F YES1 kinase enzyme solution, 35 μl of B.4X kinase buffer, 0.4 μl of YES1 enzyme, and 104.6 μl of distilled water were used. Once the diluted compound plates, ATP/substrate mixture, and YES1 kinase solution were all prepared, 3 μL each was transferred from the diluted compound plate to a luciferase 96-well white plate (Since the total volume of the ATP/substrate and YES1 kinase solution that reacts with the compound is 15 μL, the compounds were diluted 5-fold, making the final compound concentration 0.05 μM-1 μM). Then, 6 μL of F. YES1 Kinase Enzyme Solution was transferred to each well, pipetted 10 times to mix, and incubated at room temperature in a shaker for 10 minutes. Next, 6 μL of E. 2.5X ATP/Substrate Mixture was transferred to each well, pipetted 10 times to mix, and centrifuged at 12,000 rpm for 5 minutes. The plate was then incubated in a shaker at room temperature for 40 minutes. After that, 15 μL of ADP-Glo Reagent, dissolved at room temperature, was added to each well, pipetted 10 times, and incubated in a shaker at room temperature for 40 minutes. Finally, 30 μL of Kinase Detection Reagent, dissolved at room temperature, was added, pipetted 10 times, incubated in a shaker at room temperature for 30 minutes. Luminescence was measured using a luminescence plate reader. Then, the background value was subtracted from all measured values, and the YES1 kinase activity at compound concentrations of 1 nM, 10 nM, and 100 nM was calculated. The measured values were calculated as percentages using the average value of the negative control. Graphs were drawn using GraphPad Prism, and the enzyme activity was calculated as a percentage of YES1 kinase inhibition at compound concentrations of 1 nM, 10 nM, and 100 nM. IC50 values were obtained using Microsoft Excel.
# Chain of YES1 kinase (P07947 whole entry): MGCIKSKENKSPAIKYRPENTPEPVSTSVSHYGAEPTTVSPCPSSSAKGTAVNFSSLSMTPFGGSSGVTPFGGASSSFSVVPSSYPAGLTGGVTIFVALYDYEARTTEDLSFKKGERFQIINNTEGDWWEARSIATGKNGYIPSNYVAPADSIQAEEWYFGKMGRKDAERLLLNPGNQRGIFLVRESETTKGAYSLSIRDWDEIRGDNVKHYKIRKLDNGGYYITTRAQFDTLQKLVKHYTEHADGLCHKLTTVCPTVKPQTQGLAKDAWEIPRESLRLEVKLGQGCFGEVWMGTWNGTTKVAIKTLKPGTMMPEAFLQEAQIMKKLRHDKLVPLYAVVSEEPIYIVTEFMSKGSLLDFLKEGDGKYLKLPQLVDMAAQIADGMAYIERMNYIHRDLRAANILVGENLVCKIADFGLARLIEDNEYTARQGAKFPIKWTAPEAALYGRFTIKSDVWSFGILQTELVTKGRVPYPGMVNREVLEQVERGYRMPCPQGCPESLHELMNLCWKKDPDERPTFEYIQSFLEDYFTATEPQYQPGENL
row,Compound,inhibition at 0.01 µM [%]
1,"COc1cc(-c2cc(N3CC[C@@H](N(C)C)[C@H](F)C3)n3ncnc(N)c23)ccc1NC(=O)OC(C)(C)C [Example 32, tert-butyl (4-(4-amino-7-((3R,4R)-4-(dimethylamino)-3-fluoropiperidin-1-yl)pyrrolo[2,1-f][1,2,4]triazin-5-yl)-2-methoxyphenyl)carbamate]",51
2,"COc1cc(-c2cc(N3C[C@H]4CN(C)C[C@H]4C3)n3ncnc(N)c23)ccc1NC(=O)OC(C)(C)C [Example 34, tert-butyl (4-(4-amino-7-((3aR,6aS)-5-methylhexahydropyrrolo[3,4-c]pyrrol-2(1H)-yl)pyrrolo[2,1-f][1,2,4]triazin-5-yl)-2-methoxyphenyl)carbamate]",37

# Same assay, conditions: compound 100 nM; read-out: YES1 enzyme, % inhibition, 100 nM
row,Compound,inhibition at 0.1 µM [%]
1,"COc1cc(-c2cc(N3CC[C@@H](N(C)C)[C@H](F)C3)n3ncnc(N)c23)ccc1NC(=O)OC(C)(C)C [Example 32, tert-butyl (4-(4-amino-7-((3R,4R)-4-(dimethylamino)-3-fluoropiperidin-1-yl)pyrrolo[2,1-f][1,2,4]triazin-5-yl)-2-methoxyphenyl)carbamate]",82
2,"COc1cc(-c2cc(N3C[C@H]4CN(C)C[C@H]4C3)n3ncnc(N)c23)ccc1NC(=O)OC(C)(C)C [Example 34, tert-butyl (4-(4-amino-7-((3aR,6aS)-5-methylhexahydropyrrolo[3,4-c]pyrrol-2(1H)-yl)pyrrolo[2,1-f][1,2,4]triazin-5-yl)-2-methoxyphenyl)carbamate]",74

# System: KYSE-70 esophageal cancer cell line
# Assay: Cell growth inhibition of KYSE-70 (Sulforhodamine B)
# Type: cell-based
# Conditions: Homo sapiens; KYSE-70, 72 hours; read-out: KYSE70 GI50
# Protocol: The cell line according to the present invention was selected as KYSE-70, an esophageal cancer cell line in which YES1 is amplified. The evaluation of cell growth inhibition was performed as follows.
# KYSE-70 was cultured in RPMI-1640 (Capricorn) supplemented with 10% FBS (Cellgro). The cells were seeded 24 hours prior to compound treatment, into three 96-well F-bottom clear plates (Greiner), with 7,500 cells per well in 180 μL of medium. The 10 mM compound was diluted 100-fold in medium to prepare a 100 μM compound, which was then placed into a 96-well plate and further 3-fold diluted in medium to prepare a compound plate with concentrations ranging from 0.046 μM to 100 μM. 20 μL of each compound from the drug plate was added to the cell-seeded plates to achieve final concentrations of 0.0046 μM to 10 μM. At the same time, 50 μL of 33% trichloroacetic acid was injected into one plate and the plate was fixed by incubating at 4° C. This was referred to as the Do plate. Viable cells were measured 72 hours after compound treatment by injecting 50 μL of 33% trichloroacetic acid and incubating at 4° C. for more than 1 hour to fix the cells. This was referred to as the D3 plate. After the Do plate and D3 plates were washed 5 times with sterile water, 100 μL of 0.04% Sulforhodamine B solution in 1% acetic acid was added and reacted for 1 hour to stain the cells. After staining, the plates were washed 4 times with 1% acetic acid solution and completely dried. Then, the Sulforhodamine B bound to cellular proteins was completely dissolved with 10 mM Tris base solution (pH 10.5). The absorbance was measured at a wavelength of 510 nm using a microplate reader (TECAN, sunrise microplate reader). The analysis was performed using GraphPad Prism. The average absorbance of the Do plate was set to 0%, and the average absorbance of the negative control of the D3 plate was set to 100%, from which a graph was drawn and the GI50 values were calculated. Each test was performed twice.
row,Compound,GI50 [nM]
1,"CNC1CCN(CCc2c(F)c(-c3ccc(NC(=O)OC(C)(C)C)c(OC)c3)c3c(N)ncnn23)CC1 [Example 130, tert-butyl (4-(4-amino-6-fluoro-7-(2-(4-(methylamino)piperidin-1-yl)ethyl)pyrrolo[2,1-f][1,2,4]triazin-5-yl)-2-methoxyphenyl)carbamate]",≤ 100
2,"COc1cc(-c2cc(N3CCC(N)CC3)n3ncnc(N)c23)ccc1NC(=O)OC1(C)CC1 [Example 71, 1-methylcyclopropyl (4-(4-amino-7-(4-aminopiperidin-1-yl)pyrrolo[2,1-f][1,2,4]triazin-5-yl)-2-methoxyphenyl)carbamate]",≤ 100
3,"CNC1CCN(c2c(C)c(-c3ccc(NC(=O)OC(C)(C)CF)c(OC)c3)c3c(N)ncnn23)CC1 [Example 61, 1-fluoro-2-methylpropan-2-yl (4-(4-amino-6-methyl-7-(4-(methylamino)piperidin-1-yl)pyrrolo[2,1-f][1,2,4]triazin-5-yl)-2-methoxyphenyl)carbamate]",≤ 100
4,"CNC1CCN(CCc2c(C)c(-c3ccc(NC(=O)OC(C)(C)CF)c(OC)c3)c3c(N)ncnn23)CC1 [Example 64, 1-fluoro-2-methylpropan-2-yl (4-(4-amino-6-methyl-7-(2-(4-(methylamino)piperidin-1-yl)ethyl)pyrrolo[2,1-f][1,2,4]triazin-5-yl)-2-methoxyphenyl)carbamate]",≤ 100
5,"COc1cc(-c2cc(N3CCC(N)CC3)n3ccnc(N)c23)ccc1NC(=O)OC(C)(C)C [Example 132, tert-butyl (4-(1-amino-6-(4-aminopiperidin-1-yl)pyrrolo[1,2-a]pyrazin-8-yl)-2-methoxyphenyl)carbamate]",100 to 1000
6,"CNCCC1CCN(c2c(F)c(-c3ccc(NC(=O)OC(C)(C)C)c(OC)c3)c3c(N)ncnn23)CC1 [Example 131, tert-butyl (4-(4-amino-6-fluoro-7-(4-(2-(methylamino)ethyl)piperidin-1-yl)pyrrolo[2,1-f][1,2,4]triazin-5-yl)-2-methoxyphenyl)carbamate]",≤ 100
7,"CNC1CCN(CCc2cc(-c3ccc(NC(=O)OC(C)(C)CF)c(OC)c3)c3c(N)ncnn23)CC1 [Example 67, 1-fluoro-2-methylpropan-2-yl (4-(4-amino-7-(2-(4-(methylamino)piperidin-1-yl)ethyl)pyrrolo[2,1-f][1,2,4]triazin-5-yl)-2-methoxyphenyl)carbamate]",100 to 1000
8,"CC(C)(C)OC(=O)Nc1ccc(-c2cc(N3CCC(N)CC3)n3ncnc(N)c23)c2c1OCO2 [Example 73, tert-butyl (7-(4-amino-7-(4-aminopiperidin-1-yl)pyrrolo[2,1-f][1,2,4]triazin-5-yl)benzo[d][1,3]dioxol-4-yl)carbamate]",≤ 100
9,"CNC1CCN(c2c(C)c(-c3ccc(NC(=O)OC(C)(C)C)c(OC)c3)c3c(N)ncnn23)CC1 [Example 75, tert-butyl (4-(4-amino-6-methyl-7-(4-(methylamino)piperidin-1-yl)pyrrolo[2,1-f][1,2,4]triazin-5-yl)-2-methoxyphenyl)carbamate]",≤ 100
10,"COc1cc(-c2c(I)c(N3CCC(N)CC3)n3ncnc(N)c23)ccc1NC(=O)OC(C)(C)C [Example 126, tert-butyl (4-(4-amino-7-(4-aminopiperidin-1-yl)-6-iodopyrrolo[2,1-f][1,2,4]triazin-5-yl)-2-methoxyphenyl)carbamate]",100 to 1000
11,"COc1cc(-c2cc(N3CCC(N)CC3)n3ncnc(N)c23)ccc1NC(=O)OC(C)(C)C(F)(F)F [Example 72, 1,1,1-trifluoro-2-methylpropan-2-yl (4-(4-amino-7-(4-aminopiperidin-1-yl)pyrrolo[2,1-f][1,2,4]triazin-5-yl)-2-methoxyphenyl)carbamate]",100 to 1000
12,"COc1cc(-c2cc(N[C@@H]3CC[C@H](CN)C3)n3ncnc(N)c23)ccc1NC(=O)OC(C)(C)C [Example 111, tert-butyl (4-(4-amino-7-(((1R,3S)-3-(aminomethyl)cyclopentyl)amino)pyrrolo[2,1-f][1,2,4]triazin-5-yl)-2-methoxyphenyl)carbamate]",> 10000
13,"COc1cc(-c2c(Cl)c(N3CCC(N(C)C)CC3)n3ncnc(N)c23)ccc1NC(=O)OC(C)(C)C [Example 124, tert-butyl (4-(4-amino-6-chloro-7-(4-(dimethylamino)piperidin-1-yl)pyrrolo[2,1-f][1,2,4]triazin-5-yl)-2-methoxyphenyl)carbamate]",≤ 100
14,"CNCCC1CCN(c2cc(-c3ccc(NC(=O)OC(C)(C)CF)c(OC)c3)c3c(N)ncnn23)CC1 [Example 66, 1-fluoro-2-methylpropan-2-yl (4-(4-amino-7-(4-(2-(methylamino)ethyl)piperidin-1-yl)pyrrolo[2,1-f][1,2,4]triazin-5-yl)-2-methoxyphenyl)carbamate]",≤ 100
15,"COc1cc(-c2c(C)c(N3CCC(N(C)C)CC3)n3ncnc(N)c23)ccc1NC(=O)OC(C)(C)CF [Example 62, 1-fluoro-2-methylpropan-2-yl (4-(4-amino-7-(4-(dimethylamino)piperidin-1-yl)-6-methylpyrrolo[2,1-f][1,2,4]triazin-5-yl)-2-methoxyphenyl)carbamate]",≤ 100
16,"COc1cc(-c2cc(N3CCC(C)(NC(C)=O)CC3)n3ncnc(N)c23)ccc1NC(=O)OC(C)(C)C [Example 96, tert-butyl (4-(4-amino-7-(4-acetamido-4-methylpiperidin-1-yl)pyrrolo[2,1-f][1,2,4]triazin-5-yl)-2-methoxyphenyl)carbamate]",> 10000
17,"COc1cc(-c2cc(N3CCC(C(N)=O)CC3)n3ncnc(N)c23)ccc1NC(=O)OC(C)(C)C [Example 97, tert-butyl (4-(4-amino-7-(4-carbamoylpiperidin-1-yl)pyrrolo[2,1-f][1,2,4]triazin-5-yl)-2-methoxyphenyl)carbamate]",> 10000
